Values quoted from earlier work in patent publication US20260191206A1, “SYNERGISTIC INSECTICIDAL COMPOSITION COMPRISING PHTHALIMIDE COMPOUNDS AND THE USE THEREOF” (COUNCIL OF SCIENTIFIC AND INDUSTRIAL RESEARCH AN INDIAN …, priority 2022, published 2026).

Test system: trehalose 6-phosphate phosphatase
Conditions: Cross et al, Sci Rep 9, 16165 (2019)

O=C1c2ccccc2C(=O)N1Sc1ccccc1 [NPP, N-(Phenylthio) phthalimide]
inhibition of trehalose 6-phosphate phosphatase: inhibit
